Assay results reported in patent publication US20160280699A1, “SUBSTITUTED PHENYLALANINE DERIVATIVES” (BAYER PHARMA AKTIENGESELLSCHAFT, priority 2013, published 2016).
Structures can show the parent of a compound that is named as a salt.

How the values were obtained:
Type in all cases: biochemical
human factor XIa = biological target: T1, human factor XIa (Homo sapiens, UniProt P03951); test: Measurement of FXIa inhibition (fluorogenic peptide substrate Boc-Glu(OBzl)-Ala-Arg-AMC); conditions: factor XIa from Kordia, 15 min preincubation, 30 min at 22° C., fluorescence
T1 construct: purchased Kordia

human and animal plasma = test: Determination of anticoagulatory activity: activated partial thromboplastin time (aPTT) in plasma; conditions: concentration of test substance which brings about a 1.5-fold extension of the aPTT, 37° C., C.K. Prest kit
Procedure, shortened: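 Citrated human or animal plasma (e.g. mouse, rat, rabbit, pig, dog) preincubated 3 min at 37 °C with test substance and cephalin/kaolin PTT reagent. Value is the concentration giving a 1.5-fold aPTT extension.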

human plasmin = biological target: T2, human plasmin (Homo sapiens, UniProt P00747); test: Measurement of plasmin inhibition (fluorogenic peptide substrate MeOSuc-Ala-Phe-Lys-AMC); conditions: plasmin from Kordia, 15 min preincubation, 30 min at 22° C., fluorescence
T2 construct: purchased Kordia
Protocol: The plasmin inhibition of the inventive substances is determined using a biochemical test system which utilizes the reaction of a peptidic plasmin substrate to determine the enzymatic activity of human plasmin. Here, plasmin cleaves from the peptic plasmin substrate the C-terminal aminomethylcoumarin (AMC), the fluorescence of which is measured. The determinations are carried out in microtitre plates.
Test substances are dissolved in dimethyl sulphoxide and serially diluted in dimethyl sulphoxide (3000 μM to 0.0078 μM; resulting final concentrations in the test: 50 μM to 0.00013 μM). In each case 1 μl of the diluted substance solutions is placed into the wells of white microtitre plates from Greiner (384 wells). […] After 15 min of incubation, the enzyme reaction is started by addition of 20 μl of the plasmin substrate MeOSuc-Ala-Phe-Lys-AMC dissolved in assay buffer (150 μM in assay buffer) from Bachem, the mixture is incubated at room temperature (22° C.) for 30 min and fluorescence is then measured (excitation: 360 nm, emission: 460 nm). The measured emissions of the test batches with test substance are compared to those of control batches without test substance (only dimethyl sulphoxide instead of test substance in dimethyl sulphoxide), and IC50 values are calculated from the concentration/activity relationships.

T1 sequence (P03951 388-625 limits assumed): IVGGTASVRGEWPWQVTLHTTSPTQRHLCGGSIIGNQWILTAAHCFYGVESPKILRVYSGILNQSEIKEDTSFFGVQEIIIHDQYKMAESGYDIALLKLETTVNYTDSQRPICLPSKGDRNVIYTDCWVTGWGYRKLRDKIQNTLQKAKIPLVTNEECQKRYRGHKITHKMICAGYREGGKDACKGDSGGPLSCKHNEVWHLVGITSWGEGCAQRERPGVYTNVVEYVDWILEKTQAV
T1 sequence (P03951 19-387 partner limits assumed): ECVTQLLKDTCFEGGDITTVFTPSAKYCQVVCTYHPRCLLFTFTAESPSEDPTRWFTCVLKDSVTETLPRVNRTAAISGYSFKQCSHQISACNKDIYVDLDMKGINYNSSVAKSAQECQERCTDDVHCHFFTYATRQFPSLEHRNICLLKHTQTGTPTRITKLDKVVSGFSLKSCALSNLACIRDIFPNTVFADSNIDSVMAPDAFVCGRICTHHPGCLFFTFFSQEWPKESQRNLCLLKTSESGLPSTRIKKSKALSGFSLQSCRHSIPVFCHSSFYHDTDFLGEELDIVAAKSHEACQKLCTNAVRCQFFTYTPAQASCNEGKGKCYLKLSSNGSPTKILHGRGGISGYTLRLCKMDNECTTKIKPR
T2 sequence (P00747 581-810 limits assumed): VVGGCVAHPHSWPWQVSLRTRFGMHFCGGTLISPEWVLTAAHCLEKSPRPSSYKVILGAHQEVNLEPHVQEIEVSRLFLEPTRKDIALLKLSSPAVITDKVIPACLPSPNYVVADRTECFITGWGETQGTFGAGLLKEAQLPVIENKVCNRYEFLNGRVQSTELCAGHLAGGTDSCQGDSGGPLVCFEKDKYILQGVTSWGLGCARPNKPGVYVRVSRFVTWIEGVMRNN
T2 sequence (P00747 97-580 partner limits assumed): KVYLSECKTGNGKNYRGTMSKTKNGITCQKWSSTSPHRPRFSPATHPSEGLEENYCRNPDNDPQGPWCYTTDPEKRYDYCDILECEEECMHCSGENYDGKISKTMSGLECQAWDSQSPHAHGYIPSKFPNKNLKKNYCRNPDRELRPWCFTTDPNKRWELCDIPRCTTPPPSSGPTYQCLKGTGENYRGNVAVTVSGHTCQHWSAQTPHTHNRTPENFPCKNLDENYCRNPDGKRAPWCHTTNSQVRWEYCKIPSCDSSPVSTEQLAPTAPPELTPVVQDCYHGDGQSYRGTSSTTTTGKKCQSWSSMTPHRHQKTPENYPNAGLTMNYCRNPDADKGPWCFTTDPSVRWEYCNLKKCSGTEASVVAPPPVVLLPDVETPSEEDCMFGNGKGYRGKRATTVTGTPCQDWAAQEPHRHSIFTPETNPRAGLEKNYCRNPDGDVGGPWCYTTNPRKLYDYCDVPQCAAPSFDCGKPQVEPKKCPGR

SMILES | IC50 (human factor XIa) [nM] | aPTT (human and animal plasma) [µmol/L] | IC50 (human plasmin) [nM]
CC1CN(c2ccc(-c3ccc(C[C@H](NC(=O)C4CCC(CN)CC4)C(=O)Nc4ccc(-c5nn[nH]n5)cc4)cc3)cn2)CC(C)O1 (mixture of isomers) [Example 9, N-alpha-{[trans-4-(Aminomethyl)cyclohexyl]carbonyl}-4-{6-[(2RS,6SR)-2,6-dimethylmorpholin-4-yl]pyridin-3-yl}-N-[4-(2H-tetrazol-5-yl)phenyl]-L-phenylalaninamide hydrochloride] | 3.6 | 0.35 | 14
CCOC(=O)c1ccc(-c2ccc(C[C@H](NC(=O)[C@H]3CC[C@H](CN)CC3)C(=O)Nc3ccc(-c4nn[nH]n4)cc3)cc2)c(C)n1 [Example 58, Ethyl 5-{4-[(2S)-2-({[trans-4-(aminomethyl)cyclohexyl]carbonyl}amino)-3-oxo-3-{[4-(2H-tetrazol-5-yl)phenyl]amino}propyl]phenyl}-6-methylpyridin-2-carboxylate hydrochloride] | 0.8 | 0.34 | 8.6
Cl.NC[C@H]1CC[C@H](C(=O)N[C@@H](Cc2ccc(-c3cnc(N4CCOCC4)nc3)cc2)C(=O)Nc2ccc(-c3nc(C(F)(F)C(F)(F)C(=O)O)n[nH]3)cc2)CC1 [Example 59, 3-(5-{4-[(N-{[trans-4-(Aminomethyl)cyclohexyl]carbonyl}-4-[2-(morpholin-4-yl)pyrimidin-5-yl]-L-phenylalanyl)amino]phenyl}-1H-1,2,4-triazol-3-yl)-2,2,3,3-tetrafluoropropanoic acid hydrochloride] | 2.6 | 0.08 | –
